Measurements reported in US7605265B2, “Heterodimers and methods of using them” (priority 2007, dated 2009).

Tests used:
[1] = tested on: rat cortical neurons; test: NMDA survival assay (LDH release) in cortical neurons; type: cell-based; conditions: DIV11 rat cortical neurons, NMDA 20 μM, compound 0.001-10 μg/mL, LDH at 24 hr; FIG. 3
Experimental: The compounds were subjected to NMDA survival assays to investigate their ability to prevent NMDA receptor-induced excitotoxicity. The NMDA survival assay was performed to measure the degree of protection provided to cortical neuronal cells when treated with the compounds prior to an ischemic insult.
DIV10 cortical neurons were treated with NMDA (20 μM) in the presence of compound (cpd) B or C (μg/mL). LDH release in the medium was detected at 24 hr after treatment. DMSO was used as the solvent control, while MK-801 (10 μM) is a known NMDA antagonist.
DIV11 rat cortical neurons were treated with NMDA (20 μM) in the absence or presence of compounds (MK-801, 10 μM; compound A, 0.001-10 μg/mL). LDH release in the medium was detected at 24 hr after treatment. DMSO was used as the solvent control.

[2] = biological target: T1, acetylcholinesterase (AChE) (Rattus norvegicus, UniProt P37136); test: In vitro inhibition of AChE (cholinesterase assay, Ellman method); type: biochemical; conditions: for times more potent than bis(7)-tacrine / times more potent than tacrine: AChE inhibition; for Selectivity AchE*: IC50 (BChE)/IC50 (AChE); for IC50: enzyme prepared from rat cortex
T1 construct: from tissue; host or cells: rat brain cortex
T1 sequence (P37136 32-614): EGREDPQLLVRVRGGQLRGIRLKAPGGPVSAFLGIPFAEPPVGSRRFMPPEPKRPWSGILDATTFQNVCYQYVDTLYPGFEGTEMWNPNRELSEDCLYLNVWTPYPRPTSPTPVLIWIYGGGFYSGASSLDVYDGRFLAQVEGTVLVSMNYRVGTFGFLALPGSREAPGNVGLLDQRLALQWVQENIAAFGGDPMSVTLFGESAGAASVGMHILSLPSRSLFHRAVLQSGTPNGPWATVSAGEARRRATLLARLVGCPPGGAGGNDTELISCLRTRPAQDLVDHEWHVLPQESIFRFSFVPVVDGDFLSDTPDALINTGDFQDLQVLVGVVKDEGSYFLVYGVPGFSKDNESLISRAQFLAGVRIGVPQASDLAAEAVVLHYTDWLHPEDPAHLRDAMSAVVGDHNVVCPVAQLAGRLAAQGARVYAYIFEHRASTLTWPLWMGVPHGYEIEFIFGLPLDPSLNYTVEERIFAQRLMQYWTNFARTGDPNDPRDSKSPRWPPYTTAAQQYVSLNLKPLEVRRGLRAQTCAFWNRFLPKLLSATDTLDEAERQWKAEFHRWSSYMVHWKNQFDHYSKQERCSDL
Experimental: The in vitro inhibition of the enzymes acetylcholinesterase (AChE) and butyrylcholinesterase (BChE) were assessed. BChE, like AChE, breaks down acetylcholine (ACh) but is found in plasma and other organs such as the liver, skin and gastrointestinal tract.
The enzymes, AChE and BChE, used in the inhibition studies were prepared from the cortex and serum of decapitated rats, respectively.

[3] = biological target: T2, NMDA receptor (Rattus norvegicus, UniProt P35439); test: Whole cell patch clamp, NMDA-induced current in hippocampal neurons; type: cell-based; conditions: DIV10-14 rat hippocampal neurons, NMDA 50 μM, compound 10 μg/mL; FIG. 1
T2 construct: Hippocampal neurons from embryonic day 18 rats were isolated, trypsinized, plated onto 35-mm plates; endogenous in cells; host or cells: primary hippocampal neurons from embryonic day 18 rats, DIV10-14
Experimental: The NMDA receptor is a gated ion channel, which allows inflow of current during a nerve impulse. Antagonists to the receptor would prevent the inflow of current. Memantine, a known NMDA antagonist was used as the positive control.
Hippocampal neurons from embryonic day 18 rats were isolated, trypsinized, plated onto 35-mm plates at a density of 3×10^4 cells/plate and cultured in Neurobasal medium (NB) supplemented with B27 nutrient. DIV10-14 rat hippocampal neurons were treated with NMDA (50 μM) in the absence or presence of the novel compounds (Cpd A, B and C) (10 μg/mL). Data is presented as % of NMDA-induced current. DMSO is the solvent control.

Compound	protection against NMDA insults (LDH release) [1]	times more potent than bis(7)-tacrine [2]	times more potent than tacrine [2]	Selectivity AchE* [2]	IC50 [2] [nM]	NMDA-induced current [3]
O=c1ccc2c([nH]1)CCC(NCCCNc1c3c(nc4cc(Cl)ccc14)CCCC3)C2 (stereo not shown) [Compound A]	capable of protecting cortical neurons against NMDA insults	~53	~200	227.23	0.25 ± 0.05	decreased NMDA-induced current in hippocampal neurons
O=c1ccc2c([nH]1)CCCC2NCCCCCCCNc1c2c(nc3cc(Cl)ccc13)CCCC2 (stereo not shown) [Compound B]	–	~1885	~20471	4563	0.0068 ± 0.003	decreased NMDA-induced current in hippocampal neurons
O=c1ccc2c([nH]1)CCCC2NCCCCCCCCNc1c2c(nc3cc(Cl)ccc13)CCCC2 (stereo not shown) [Compound C]	–	~1039	~11000	50317.32	0.0127 ± 0.002	decreased NMDA-induced current in hippocampal neurons
